Entries after “also recorded” stand apart in the source; their conditions may differ. Counter-ions that a name gives are not always drawn.

The data set is described as follows: 60-Day tolerability study of tablets in cats: adverse effects. The conditions noted are these: 20 and 40 mg daily oral tablets for 60 days, monohydrochloride. It is filed as in vivo. The method, then:
This study was conducted in order to examine the long-term tolerability of a pharmaceutical composition comprising 1-[(3-cyano-pyridin-2-yl)methyl]-3-methyl-7-(2-butyn-1-yl)-8-[3-(R)-amino-piperidin-1-yl]-xanthine monohydrochloride in cats after repeated oral administration for 60-days.
For this purpose, the compound according to the invention has been admixed with standard ingredients to a scored, oblong, brown tablet, size 10×5.5 mm, comprising 1-[(3-cyano-pyridin-2-yl)methyl]-3-methyl-7-(2-butyn-1-yl)-8-[3-(R)-amino-piperidin-1-yl]-xanthine monohydrochloride at 21.68 mg of the chloride per tablet (which equals 20 mg of the free base) and 10% meat flavour.
20 male healthy non-obese cats (Domestic short hair feline) supplied by Liberty Research, Inc., Waverly, N.Y., USA, of an age of 13 to 20 months were used. After an adaptation period of 4 weeks, they were separated into three groups: group 1 (6 members, no. 1 to 6) for placebo treatment, group 2 (7 members, no. 7 to 13) for treatment with 20 mg/cat, group 3 (7 members, no. 14 to 20) for treatment with 40 mg/cat. They were treated once daily in the morning, orally with the respective tablet(s) for 60 days. All animals had fasted over night and were fed 4 hours after the administration. Drinking water was offered ad libitum. […]

For the compound `CC#CCn1c(N2CCC[C@@H](N)C2)nc2c1c(=O)n(Cc1ncccc1C#N)c(=O)n2C` [1-[(3-cyano-pyridin-2-yl)methyl]-3-methyl-7-(2-butyn-1-yl)-8-[3-(R)-amino-piperidin-1-yl]-xanthine monohydrochloride], the “adverse effects / tolerability” value was “Adverse effects were not detected; also recorded: well tolerated”.

These data come from patent publication US20140228287A1, “1-[(3-CYANO-PYRIDIN-2-YL)METHYL]-3-METHYL-7-(2-BUTYN-1-YL)-8-[3-(R)-AMINO-PIPERIDIN-1-YL]-AXANTHINE FOR THE TREATMENT OF A METABOLIC DISORDER OF A PREDOMINANTLY CARNIVOROUS NON-HUMAN ANIMAL” (BOEHRINGER INGELHEIM VETMEDICA GMBH, priority 2010, published 2014).
